From patent US20200000752A1, “Method for Treating Epilepsy” (Vanderbilt University, priority 2016, published 2020)

What was measured:
[1] = tested on: Gabrg2^+/Q390X mice; experiment: Barnes maze, Gabrg2+/Q390X mice; assay type: in vivo, mouse; conditions: 0.3 mg/kg IP for 2 weeks, 2-4 months old
Experimental: (§1) Flow chart in FIG. 13A depicts an overview of the Barnes maze. In training trials which are considered as learning test, time spent to locate the target hole was recorded and quantified for each day in each mouse genotype. In probe trials which are considered as memory test, an hour after the last training trial, each mouse was allotted a 300 sec session to find the target hole. […]. The total time spent at each of the 12 holes was assessed.

[2] = tested on: mutant GABAA α1β2γ2(R82Q) receptors; experiment: Expression of mutant α1β2γ2(R82Q) receptor subunits in HEK 293T cells (SDS-PAGE immunoblot); assay type: cell-based
Experimental: HEK 293T cells were transfected with α1, […] and the mutant γ2(R82Q) subunits at 1:1:1 cDNA ratio for 48 hrs. […] (FIG. 20A). Total cell lysates were analyzed by SDS-PAGE and the membrane was immunoblotted against al or γ2 subunits. (FIG. 20A). Protein IDVs of al or γ2 subunits were normalized to the cells without treatment (0) (FIG. 20B).

[3] = tested on: Scn1a^+/− mice; experiment: Early intermittent dosing, survival of Scn1a+/- mice; assay type: in vivo, mouse; conditions: 0.3 mg/kg intermittent from postnatal day 7; untreated ~60% mortality by week 7
Excerpt: (§2) (FIG. 5B, C). Gabrg2^+/Q390X mice in C57/BL/6J background had ˜25% of mortality (B) while Scn1a^+/− mice in C57/BL/6J background had ˜60% of mortality by week 7 (C). […] The Gabrg2^+/Q390X mice were in C57/BL/6J background while Scn1a^+/− sires were from mixed S129/C57BL/6J and the dams were congenic C57/BL/6J. For each mouse model, heterozygous pups of both male and female from 6-8 litters were included.

[4] = tested on: AKT, active caspase 3; experiment: P-AKT immunoblot and active caspase 3 staining in cells and Gabrg2+/Q390X mice; design: species or system mouse
Experimental: Total lysates from HEK 293T cells expressing the wild-type (wt) or the mutant α1β2γ2(Q390X) (mut) receptors (FIG. 17A) or from Gabrg2^+/Q390X mouse cortex (17B) were analyzed by SDS-PAGE. The membranes were immunoblotted with the phosphorylated AKT (P-AKT). FIG. 17C. Paraffin-embedded brain sections from 1 year old wild-type (wt) and heterozygous Gabrg2^+/Q390X (het) mice were stained with the active form of caspase 3 (green) and NeuN (red). The cell nuclei were stained with TO-PRO-3 (blue).

[5] = tested on: cultured cortical neurons from the wild-type mouse brains; experiment: Neuronal viability, trypan blue exclusion; assay type: cell-based; conditions: 0-8 μm for 4 hours, at the therapeutic levels
Experimental: The neuronal viability was determined with membrane integrity by trypan blue exclusion method^12. The mean survival was determined by counting eight randomly selected, non-overlapping fields with each containing approximately 10-20 neurons (viable+nonviable) (n=4 different cultures). GABAAR expression was determined by the high-throughput flow cytometry. HEK 293T cells were transfected with human α1, β2 and γ2 subunit cDNAs at 1:1:1 ratio for 48 hours. The α1 subunit was chosen as readout. The anti-α1 antibody was directly conjugated with Alexa 488 (data are mean±SEM, n=4). The healthy population was gated.

[6] = tested on: Scn1a^+/− mouse; experiment: Chronic intermittent dosing toxicity in an Scn1a+/- mouse; assay type: in vivo
Excerpt: An eight-month old male Scn1a^+/− mouse with chronic intermittent dosing was investigated for cortex and hippocampus neuronal survival, which was normal (FIG. 8A).

[7] = tested on: Scn1a^+/− mice; experiment: PTZ-induced seizures in Scn1a+/- mice after 14 days treatment; assay type: in vivo, mouse; conditions: 0.3 mg/kg IP 14 days; PTZ 50 mg/kg IP
[8] = tested on: synaptic scaffold protein gephyrin; experiment: Gephyrin staining in brain sections of Gabrg2+/Q390X mice; assay type: in vivo, mouse; conditions: 0.3 mg/kg for 14 days
Excerpt: Synaptosomes from mouse forebrains were isolated by subcellular fractionation^7. The samples were then fractionated by SDS-PAGE and immunoblotted by rabbit polyclonal anti-γ2 subunit antibody and synaptic scaffold proteins including gephyrin, collybistin, synaptogamin 1 and neuroligin II. The γ2 subunit protein and synaptic scaffold proteins were reduced in the Gabrg2^+/Q390X (het) mice. (FIG. 18A). […] The sections were then stained with rabbit anti-γ2 subunit (green) and mouse monoclonal anti-gephyrin (red) antibodies. The nuclei were stained with TO-PRO-3. (FIG. 18B). The raw fluorescence values of gephyrin was measured by ImageJ. […] (FIG. 18C).

[9] = tested on: Scn1a^+/− mice
[10] = target: CYP 1A2 (Homo sapiens, UniProt P05177); experiment: biochemical
[11] = tested on: mutant γ2(Q390X) subunit protein; experiment: Western blot of mutant γ2(Q390X) subunit protein in HEK 293T cells; assay type: cell-based; conditions: 1 μm for 4 hours
Experimental: Total lysates from HEK 293T cells expressing wild-type α1β2γ2 (wt) or the mutant α1β2γ2(Q390X) (mut) receptors for 48 hrs from or from 1 year old wt or Gabrg2^+/Q390X (het) mouse brains were analyzed by western blot (FIGS. 10A and 10B).

[12] = tested on: Gabrg2^+/Q390X mice; experiment: Early intermittent dosing, survival of Gabrg2+/Q390X mice; assay type: in vivo, mouse; conditions: 0.3 mg/kg intermittent from postnatal day 7; untreated ~25% mortality
Excerpt: as §2

[13] = PK of celastrol from IV, IP and PO studies in C57BL/6J mice; conditions: male, mouse, whole blood
[14] = target: CYP 2C9 (Homo sapiens, UniProt P11712); experiment: biochemical
[15] = tested on: Caco2 cells; experiment: Caco-2 intrinsic permeability
[16] = Caco-2 intrinsic permeability; conditions: human
[17] = tested on: AppSWE/PsenIdE9 mice; conditions: mouse, in vivo; cited from earlier work
[18] = tested on: Gabrb3^+/− mice; experiment: Barnes maze, Gabrb3+/- mice; assay type: in vivo, mouse; conditions: 0.3 mg/kg IP for 2 weeks, 6-8 months old
Experimental: as §1

[19] = 3 litters with 6-8 grossly normal pups

Sequence of CYP 2C9 (P11712 whole entry): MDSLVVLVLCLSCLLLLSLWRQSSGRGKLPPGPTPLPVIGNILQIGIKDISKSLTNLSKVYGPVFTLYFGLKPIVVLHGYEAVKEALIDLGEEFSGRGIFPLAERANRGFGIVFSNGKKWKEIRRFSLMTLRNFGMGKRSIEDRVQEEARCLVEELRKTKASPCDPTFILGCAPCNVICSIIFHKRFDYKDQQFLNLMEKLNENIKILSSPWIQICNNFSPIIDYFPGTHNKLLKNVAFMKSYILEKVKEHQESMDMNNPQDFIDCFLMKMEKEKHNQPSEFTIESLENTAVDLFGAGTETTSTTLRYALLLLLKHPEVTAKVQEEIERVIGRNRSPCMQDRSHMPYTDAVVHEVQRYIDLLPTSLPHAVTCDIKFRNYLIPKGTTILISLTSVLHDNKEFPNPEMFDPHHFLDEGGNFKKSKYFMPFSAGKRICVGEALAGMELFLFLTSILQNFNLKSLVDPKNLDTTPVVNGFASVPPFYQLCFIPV
Sequence of CYP 1A2 (P05177 whole entry): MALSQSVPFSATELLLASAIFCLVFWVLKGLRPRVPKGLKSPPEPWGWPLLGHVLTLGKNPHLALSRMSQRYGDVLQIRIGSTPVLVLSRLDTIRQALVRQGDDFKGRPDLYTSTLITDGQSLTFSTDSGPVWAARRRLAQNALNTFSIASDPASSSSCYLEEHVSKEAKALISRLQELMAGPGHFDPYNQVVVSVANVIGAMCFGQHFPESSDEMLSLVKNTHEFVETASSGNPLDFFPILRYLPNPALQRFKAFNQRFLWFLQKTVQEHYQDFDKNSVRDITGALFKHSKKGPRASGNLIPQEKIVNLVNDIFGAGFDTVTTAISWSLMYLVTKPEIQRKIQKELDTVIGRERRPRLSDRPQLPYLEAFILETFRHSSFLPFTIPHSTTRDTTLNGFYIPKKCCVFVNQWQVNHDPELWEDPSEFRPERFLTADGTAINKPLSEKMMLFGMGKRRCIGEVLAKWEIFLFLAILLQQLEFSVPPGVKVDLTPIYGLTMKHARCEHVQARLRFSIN

CC1=C(O)C(=O)C=C2C1=CC=C1[C@@]2(C)CC[C@@]2(C)[C@@H]3C[C@](C)(C(=O)O)CC[C@]3(C)CC[C@]12C [Celastrol, 3-Hydroxy-9β,13α-dimethyl-2-oxo-24,25,26-trinoroleana-1(10),3,5,7-tetraen-29-oic acid]
time spent at target hole in probe trial [1]: spent more time in the target hole area | expression of mutant α1β2γ2(R82Q) receptors ([2]; applied 4 hrs before harvest): increased | enhancing GABAA receptor subunit expression, comparison ([2]; different concentrations, 4 hrs): more effective in enhancing GABAA receptor subunit expression than Stiripentol | survival [3]: completely rescued the survival | active caspase 3 ([4]; 0.3 mg/kg IP 2 weeks): Reducing Active Caspase 3 | AKT (P-AKT) ([4]; 0.3 mg/kg IP 2 weeks in mice, HEK 293T cells): Activating AKT | cell viability [5]: no reduced cell viability | fertility [6, 19]: normal fertility | teratogenicity [6, 19]: no teratogenicity | HE staining of liver, kidney and heart ([6]; chronic intermittent dosing): Normal cell numbers, morphology and viability | HE staining of lung, spleen, intestine, testis, leg muscle and skin ([6]; chronic intermittent dosing): no abnormalities were identified | blood counts ([6]; chronic intermittent dosing): normal blood counts | organ function, total protein and metabolics ([6]; chronic intermittent dosing): normal function of liver, heart and kidney and normal total protein and metabolics | cortex and hippocampus neuronal survival ([6]; eight-month old male, chronic intermittent dosing): normal | seizure threshold and seizures after PTZ [7]: increased seizure threshold and decreased seizures | gephyrin puncta [8]: increased gephyrin puncta | Number SWDs ([9]; SWDs over 1 sec, 30 min after PTZ 50 mg/kg, n=2, celastrol 0.3 mg/kg intermittent (8th day of drug holiday), diazepam 0.3 mg/kg, stiripentol 150 mg/kg, saline 21): 2 | efficacy in reducing seizure severity versus comparators ([9]; chronic intermittent dosing 0.3 mg/kg IP): Better Efficacy in Reducing Seizure Severity than Diazepam or Stiripentol | IC50 [10]: > 10 µM | mutant γ2(Q390X) subunit protein [11]: reduced | survival [12]: completely rescued the survival | bioavailability [13]: ~20% | bioavailability ([13]; 10 mg/kg): 20% | IC50 [14]: 4.88 µM | membrane permeability in Caco2 assay, in words [15]: high membrane permeability | Papp at 2 h, 2 microM [16]: ≥ 1 ×10⁻⁶ cm/s | memory [17]: improve memory | time spent at target hole in probe trial [18]: spent more time in the target hole area
